From publication PMC12064818, “A general assay platform to study protein pharmacology using ligand-dependent structural dynamics” (Nature Communications, 2025)
Read-outs that look alike come from different tables or passages of the source.

Columns and labels:
NLuc = target: T1, NLuc (Oplophorus gracilirostris, UniProt Q9GV45, A31E/A60N/A81I/F95D/I117V/K70R/L54V/L99Q/M102K/N193R/P142E/Q151K/Q38R/Q45L/V71I/Y165I); format: biochemical; conditions: for Standard assay statistics Ave RLU / Standard assay statistics S:B / Standard assay statistics S:N / Standard assay statistics Z’ / SDR assay statistics Ave RLU / SDR assay statistics S:B / SDR assay statistics S:N / SDR assay statistics Z’: 32.8 µM ligand; for SDR assay statistics Ave RLU / SDR assay statistics S:B / SDR assay statistics S:N / SDR assay statistics Z’: Standard functional and SDR assays are the same
T1 construct: His tag (inferred from IMAC purification); made in house; host or cells: E. coli
In short: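 Test compounds added to 1 nM NLuc in PBS with 0.05% IGEPAL, ± ATP. Nano-Glo reagent added and incubated 10 min before luminescence read.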

[1] = target: FLuc-C-HiBiT (firefly luciferase) (Photinus pyralis, UniProt P08659, form not given/L550V); assay: SDR assay, FLuc-C-HiBiT; conditions: for SDR + 10 mM ATP / SDR No ATP: 10 nM FLuc-C-HiBiT, normalized activity, Log [Compound]; for SDR assay statistics Ave RLU / SDR assay statistics S:B / SDR assay statistics S:N / SDR assay statistics Z’: 32.8 µM ligand; for 10 nM FLuc-C-HiBiT + 10 mM ATP, Mean / 10 nM FLuc-C-HiBiT No ATP, Mean: Log [PTC124]
[2] = target: firefly luciferase (FLuc) (Photinus pyralis, UniProt P08659); assay: Thermal shift profiles (Thermofluor assay), FLuc; format: binding; set-up: unit of the concentration uncertain; conditions: 52.782 °C; compound 100 (unit uncertain);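 further: normalized first derivative of fluorescence (dF/dT) at the stated temperature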
Experimental: Thermal stabilization of proteins in the presence of the ligands were determined using Thermofluor technique. MicroAmp optical 384-well plates (Applied Biosystems by Life Technologies), ViiA 7 real-time PCR instrument (Applied Biosystems by Life Technologies) and SYPRO Orange (Life Technologies) were used to test the samples. The final concentration of the protein, compounds and dye were maintained at 5 µM, 100 µM and 10x respectively in a 20 µL reaction volume. […] Proteins were added to the 384-well plate first followed by the compounds. Samples were incubated for 10 mins at room temperature and protected from light. […] The plate was sealed with a MicroAmp optical adhesive film, centrifuged at 1500 RPM for 2 min, and then loaded onto the ViiA 7 real–time PCR instrument for fluorescence intensity measurements upon heating the sample from 25 to 95 °C at 1 °C/min increments. Data was exported to excel, fluorescence intensity data and its first derivative were normalized and plotted using GraphPad Prism to determine Tm. […]
6 Read ViiA7 Read the therm al unfolding of the protein with ViiA7 real-tim e PCR system
4 Prepare 50X dye in PBS: 1 μL Sypro Orange 5000X (Life Technologies), 99 μL ddH2O. Add 4 μL to each well Read the m elting tem perature from 25 to 95 °C using ViiA 7 real tim e PCR instrum ent by following the below instructions Perform therm al denaturation in 384-well assay plate […]

[3] = FLuc-C-HiBiT (10 nM) + 10 mM ATP

Sequence of FLuc-C-HiBiT (firefly luciferase) (P08659 2-550 L550V, form open): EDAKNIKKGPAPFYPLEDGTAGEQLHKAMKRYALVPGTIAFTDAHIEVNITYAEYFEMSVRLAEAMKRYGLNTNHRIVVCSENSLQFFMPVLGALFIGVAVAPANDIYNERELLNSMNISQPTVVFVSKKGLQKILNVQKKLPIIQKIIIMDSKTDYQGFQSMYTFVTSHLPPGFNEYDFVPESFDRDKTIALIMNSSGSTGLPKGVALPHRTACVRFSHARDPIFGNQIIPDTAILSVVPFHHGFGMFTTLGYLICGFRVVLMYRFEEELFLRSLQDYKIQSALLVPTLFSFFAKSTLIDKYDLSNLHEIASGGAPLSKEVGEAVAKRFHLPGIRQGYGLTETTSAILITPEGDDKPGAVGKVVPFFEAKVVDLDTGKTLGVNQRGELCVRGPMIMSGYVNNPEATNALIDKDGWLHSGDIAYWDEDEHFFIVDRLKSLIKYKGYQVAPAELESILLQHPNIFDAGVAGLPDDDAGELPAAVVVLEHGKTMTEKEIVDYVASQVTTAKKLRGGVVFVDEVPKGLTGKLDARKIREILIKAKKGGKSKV
T1 sequence (Q9GV45 other isoform, or with tags, fused parts or gaps with the stated changes): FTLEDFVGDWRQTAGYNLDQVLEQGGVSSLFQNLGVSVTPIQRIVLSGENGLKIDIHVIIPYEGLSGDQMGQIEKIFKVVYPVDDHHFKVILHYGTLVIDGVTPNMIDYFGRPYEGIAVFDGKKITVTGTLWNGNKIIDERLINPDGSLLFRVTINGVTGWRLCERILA
Sequence of firefly luciferase (FLuc) (P08659 whole entry): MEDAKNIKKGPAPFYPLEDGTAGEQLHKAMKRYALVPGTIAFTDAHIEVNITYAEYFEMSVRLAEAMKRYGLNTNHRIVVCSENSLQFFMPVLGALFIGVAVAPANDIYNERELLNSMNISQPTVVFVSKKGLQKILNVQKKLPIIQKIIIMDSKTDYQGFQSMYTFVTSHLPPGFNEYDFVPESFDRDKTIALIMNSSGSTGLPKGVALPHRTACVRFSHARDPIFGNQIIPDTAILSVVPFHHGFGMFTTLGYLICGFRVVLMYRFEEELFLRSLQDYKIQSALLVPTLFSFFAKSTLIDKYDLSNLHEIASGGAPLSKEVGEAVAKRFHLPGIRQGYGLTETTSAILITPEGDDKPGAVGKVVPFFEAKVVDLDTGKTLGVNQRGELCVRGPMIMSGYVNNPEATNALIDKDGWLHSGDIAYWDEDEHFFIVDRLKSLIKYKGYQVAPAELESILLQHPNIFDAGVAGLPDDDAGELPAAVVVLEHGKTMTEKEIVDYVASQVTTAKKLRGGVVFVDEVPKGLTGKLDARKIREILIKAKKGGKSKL

Nc1ncnc2c1ncn2[C@@H]1O[C@H](COP(=O)(O)OP(=O)(O)OP(=O)(O)O)[C@@H](O)[C@H]1O [ATP]
effect on NLuc activity (in words) (NLuc; ±ATP): no effect on NLuc activity

CC(CNC(=O)C1CCN(C(=O)c2ncn3c2COC(c2ccccc2)C3)CC1)c1ccccc1 (centres unmarked) [compound 00449795]
SDR + 10 mM ATP ([1]; M -4.48): 68.6 | SDR No ATP ([1]; M -4.48): 10.5 | SDR + 10 mM ATP ([1]; M -4.96): 61.3 | SDR No ATP ([1]; M -4.96): 11.6 | SDR + 10 mM ATP ([1]; M -5.44): 53.2 | SDR No ATP ([1]; M -5.44): 11.0 | SDR + 10 mM ATP ([1]; M -5.91): 34.2 | SDR No ATP ([1]; M -5.91): 13.6 | SDR + 10 mM ATP ([1]; M -6.39): 20.6 | SDR No ATP ([1]; M -6.39): 11.0 | SDR + 10 mM ATP ([1]; M -6.87): 11.1 | SDR No ATP ([1]; M -6.87): 10.7 | SDR + 10 mM ATP ([1]; M -7.35): 7.5 | SDR No ATP ([1]; M -7.35): 9.2 | SDR + 10 mM ATP ([1]; M -7.82): 10.0 | SDR No ATP ([1]; M -7.82): 13.4 | SDR + 10 mM ATP ([1]; M -8.30): 8.1 | SDR No ATP ([1]; M -8.30): 10.9 | SDR + 10 mM ATP ([1]; M -8.78): 7.1 | SDR No ATP ([1]; M -8.78): 11.5 | SDR + 10 mM ATP ([1]; M -9.25): 7.9 | SDR No ATP ([1]; M -9.25): 9.6 | % Activity (max response, + ATP) ([1]; + ATP, SDR max. response, clade S): 349.21% | % Activity (max response, - ATP) ([1]; - ATP, SDR max. response, clade S): 0.00% | ATP dependence of SDR assay output (in words) ([1]; FLuc-C-HiBiT): strictly ATP-dependent

O=C(O)c1cccc(-c2noc(-c3ccccc3F)n2)c1 [PTC124, reference compound]
pSDR50, FLuc-C-HiBiT (10 nM) ([1]; 0 μM ATP): 5.73 ± 0.13 | pSDR50, FLuc-C-HiBiT (10 nM) ([1]; 10 μM ATP): 8.30 ± 0.07 | SDR assay statistics Ave RLU [1, 3]: 11178.8 RLU | SDR assay statistics S:B [1, 3]: 6.5 | SDR assay statistics S:N [1, 3]: 12.2 | SDR assay statistics Z’ [1, 3]: 0.693 | SDR assay statistics Ave RLU ([1]; FLuc-C-HiBiT (10 nM) No ATP): 6229.4 RLU | SDR assay statistics S:B ([1]; FLuc-C-HiBiT (10 nM) No ATP): 5.1 | SDR assay statistics S:N ([1]; FLuc-C-HiBiT (10 nM) No ATP): 7.5 | SDR assay statistics Z’ ([1]; FLuc-C-HiBiT (10 nM) No ATP): 0.503 | 10 nM FLuc-C-HiBiT + 10 mM ATP, Mean ([1]; M (SDR) -4.48): 21802.2 RLU | 10 nM FLuc-C-HiBiT No ATP, Mean ([1]; M (SDR) -4.48): 17458.7 RLU | 10 nM FLuc-C-HiBiT + 10 mM ATP, Mean ([1]; M (SDR) -4.96): 22284.7 RLU | 10 nM FLuc-C-HiBiT No ATP, Mean ([1]; M (SDR) -4.96): 16769.9 RLU | 10 nM FLuc-C-HiBiT + 10 mM ATP, Mean ([1]; M (SDR) -5.44): 22342.5 RLU | 10 nM FLuc-C-HiBiT No ATP, Mean ([1]; M (SDR) -5.44): 16051.7 RLU | 10 nM FLuc-C-HiBiT + 10 mM ATP, Mean ([1]; M (SDR) -5.91): 22563.9 RLU | 10 nM FLuc-C-HiBiT No ATP, Mean ([1]; M (SDR) -5.91): 15076.6 RLU | 10 nM FLuc-C-HiBiT + 10 mM ATP, Mean ([1]; M (SDR) -6.39): 22424.3 RLU | 10 nM FLuc-C-HiBiT No ATP, Mean ([1]; M (SDR) -6.39): 13877.2 RLU | 10 nM FLuc-C-HiBiT + 10 mM ATP, Mean ([1]; M (SDR) -6.87): 22543.4 RLU | 10 nM FLuc-C-HiBiT No ATP, Mean ([1]; M (SDR) -6.87): 13237.3 RLU | 10 nM FLuc-C-HiBiT + 10 mM ATP, Mean ([1]; M (SDR) -7.35): 21860.7 RLU | 10 nM FLuc-C-HiBiT No ATP, Mean ([1]; M (SDR) -7.35): 13241.3 RLU | 10 nM FLuc-C-HiBiT + 10 mM ATP, Mean ([1]; M (SDR) -7.82): 20621.1 RLU | 10 nM FLuc-C-HiBiT No ATP, Mean ([1]; M (SDR) -7.82): 13270.4 RLU | 10 nM FLuc-C-HiBiT + 10 mM ATP, Mean ([1]; M (SDR) -8.30): 18655.3 RLU | 10 nM FLuc-C-HiBiT No ATP, Mean ([1]; M (SDR) -8.30): 13170.2 RLU | 10 nM FLuc-C-HiBiT + 10 mM ATP, Mean ([1]; M (SDR) -8.78): 16941.8 RLU | 10 nM FLuc-C-HiBiT No ATP, Mean ([1]; M (SDR) -8.78): 13237.7 RLU | 10 nM FLuc-C-HiBiT + 10 mM ATP, Mean ([1]; M (SDR) -9.25): 15920.6 RLU | 10 nM FLuc-C-HiBiT No ATP, Mean ([1]; M (SDR) -9.25): 13300.5 RLU | 10 nM FLuc-C-HiBiT + 10 mM ATP, Mean ([1]; M (SDR) -9.73): 15410.2 RLU | 10 nM FLuc-C-HiBiT No ATP, Mean ([1]; M (SDR) -9.73): 13254.2 RLU | 10 nM FLuc-C-HiBiT + 10 mM ATP, Mean ([1]; M (SDR) -10.21): 15302.7 RLU | 10 nM FLuc-C-HiBiT No ATP, Mean ([1]; M (SDR) -10.21): 12964.2 RLU | 10 nM FLuc-C-HiBiT + 10 mM ATP, Mean ([1]; M (SDR) -10.69): 15229.5 RLU | 10 nM FLuc-C-HiBiT No ATP, Mean ([1]; M (SDR) -10.69): 13111.1 RLU | 10 nM FLuc-C-HiBiT + 10 mM ATP, Mean ([1]; M (SDR) -11.16): 15146.3 RLU | 10 nM FLuc-C-HiBiT No ATP, Mean ([1]; M (SDR) -11.16): 13296.1 RLU | 10 nM FLuc-C-HiBiT + 10 mM ATP, Mean ([1]; M (SDR) -11.64): 14993.9 RLU | 10 nM FLuc-C-HiBiT No ATP, Mean ([1]; M (SDR) -11.64): 13163.6 RLU | Standard assay statistics Ave RLU (NLuc; NLuc (1 nM) + 10 mM ATP): 17397.2 RLU | Standard assay statistics S:B (NLuc; NLuc (1 nM) + 10 mM ATP): 1.0 | Standard assay statistics S:N (NLuc; NLuc (1 nM) + 10 mM ATP): 0.0 | Standard assay statistics Z’ (NLuc; NLuc (1 nM) + 10 mM ATP): -163.485 | SDR assay statistics Ave RLU (NLuc; NLuc (1 nM) + 10 mM ATP): 17397.2 RLU | SDR assay statistics S:B (NLuc; NLuc (1 nM) + 10 mM ATP): 1.0 | SDR assay statistics S:N (NLuc; NLuc (1 nM) + 10 mM ATP): 0.0 | SDR assay statistics Z’ (NLuc; NLuc (1 nM) + 10 mM ATP): -163.485 | Standard assay statistics Ave RLU (NLuc; NLuc (1 nM) No ATP): 20065.5 RLU | Standard assay statistics S:B (NLuc; NLuc (1 nM) No ATP): 1.0 | Standard assay statistics S:N (NLuc; NLuc (1 nM) No ATP): 0.0 | Standard assay statistics Z’ (NLuc; NLuc (1 nM) No ATP): -167.215 | SDR assay statistics Ave RLU (NLuc; NLuc (1 nM) No ATP): 20065.5 RLU | SDR assay statistics S:B (NLuc; NLuc (1 nM) No ATP): 1.0 | SDR assay statistics S:N (NLuc; NLuc (1 nM) No ATP): 0.0 | SDR assay statistics Z’ (NLuc; NLuc (1 nM) No ATP): -167.215

CC(CNC(=O)C1CCN(C(=O)c2ncn3c2COC(c2ccccc2)C3)CC1)c1ccccc1 (centres unmarked) [NCGC 00449795]
Thermofluor FLuc, No ATP [2]: 0.992

COc1ccc(NC(=O)C2CCN(C(=O)c3ncn4c3COC(c3ccccc3)C4)CC2)cc1Cl (centres unmarked) [NCGC 00449919]
Thermofluor FLuc, No ATP [2]: 0.994
